This test concerns M. tuberculosis H37Rv growth inhibition. Description: Mycobacterium tuberculosis H37Rv growth inhibition, putative kinase inhibitor library, confirmatory dose response (AID 2842).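 Also: bacteria incubated one week before Alamar blue readout.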

Values after ≈ are worked out from the molar mass of the structure shown. Some results are limits rather than exact numbers.

On to `CC1(C)CC(=O)c2sc(NC(=O)c3ccc(NS(=O)(=O)c4ccc(Cl)cc4)cc3)nc2C1`, for which the IC90 was 15.5 µg/mL (≈ 31.7 µM).
For `Cc1c(Cl)ccc2sc(N(CCCn3ccnc3)C(=O)/C=C/c3cccs3)nc12`, the 90% effect concentration (IC90) was 0.24 µg/mL (≈ 0.542 µM).
`CCN(CC)S(=O)(=O)c1ccc(C(=O)Nc2sccc2C(=O)NC(=O)OC)cc1`: the IC90 is under 0.2 µg/mL.
On to `COc1ccc(-c2nsc(SCC(=O)Nc3ccc(C(C)=O)cc3)n2)cc1`, for which the IC90 was 25.9 µg/mL (≈ 64.9 µM).
With `CCOc1ccc(C(=O)Nc2nnc(-c3ccccn3)o2)cc1`, the IC90 is 1.03 µg/mL (≈ 3.32 µM).
In the case of `Cc1ccc(Nc2nc(N3CCN(Cc4ccccc4)CC3)nc3nccnc23)cc1Cl` it was 2.67 µg/mL (≈ 5.99 µM); in that of `CC1=C(C(=O)Nc2cccc(Cl)c2)C(c2ccc(Br)cc2)NC(=O)N1` (centres undefined), 20.3 µg/mL (≈ 48.1 µM).
As for `O=C(Cc1cccc2ccccc12)Nc1nc(-c2ccc(Br)s2)cs1`, the figure is 15.7 µg/mL (≈ 36.5 µM); as for `COC(=O)c1cc(C(=O)OC)cc(-n2c(C)cc(C(=O)CCl)c2C)c1`, 6.39 µg/mL (≈ 17.6 µM); as for `CCOc1ccc2nc(SC3CC(=O)N(c4ccc(N5CCCCC5)cc4)C3=O)sc2c1` (centres undefined), 24.8 µg/mL (≈ 53 µM).
In the case of `O=C(NC1NC(c2ccccc2)=CS1)c1ccc([N+](=O)[O-])s1` (centres undefined) it was 3.42 µg/mL (≈ 10.3 µM); in that of `N#C/C(=C\Nc1ccccc1)c1nc2ccccc2[nH]1`, 3.25 µg/mL (≈ 12.5 µM).
`COc1cc2c(=O)c(C(=O)c3ccc(F)cc3)cn(Cc3ccc(C)cc3)c2cc1OC`: the concentration for an effect of 90% (IC90) is 7.24 µg/mL (≈ 16.8 µM).
As for `O=C(CSc1ncnc2c1oc1ccccc12)OCc1ccccc1`, the figure is 12.1 µg/mL (≈ 34.6 µM).
As to `Cc1ccc(C)c(-c2nnc(NC(=O)C3=COCCO3)o2)c1`, the IC90 is under 0.2 µg/mL.
As for `O=C(Nc1nnc(-c2cccs2)o1)c1ccc2c(c1)CCCC2`, the IC90 is 37.6 µg/mL (≈ 116 µM).
As for `CC1CCN(S(=O)(=O)c2ccc(C(=O)Nc3nnc(-c4cc(Cl)ccc4Cl)o3)cc2)CC1`, the figure is 35.4 µg/mL (≈ 71.5 µM).
Consider `c1ccc2sc(Nc3nc4cc5c(cc4s3)OCO5)nc2c1`, for which the concentration for an effect of 90% (IC90) is 18.6 µg/mL (≈ 56.9 µM).
For the compound `Cc1ccc(NC(=O)c2oc3ccccc3c2NC(=O)CCl)cc1C`, the IC90 is 10.2 µg/mL (≈ 28.5 µM).
In the case of `C/C(=N\NC(=O)c1cc(-c2ccc(Cl)s2)[nH]n1)c1ccco1` it was 6.9 µg/mL (≈ 20.6 µM).
As for `CCCOc1ccc(S(=O)(=O)Nc2ccc3c(c2)CCC(=O)N3CC)cc1`, the figure is 13 µg/mL (≈ 33.5 µM).
In the case of `CCOc1ccc2nc(N(CCCn3ccnc3)C(=O)c3cccs3)sc2c1` it was 3.43 µg/mL (≈ 8.31 µM).
Regarding `Cc1ccc(C)c(-c2nnc(NC(=O)c3cc([N+](=O)[O-])ccc3Cl)o2)c1`, the IC90 is under 0.2 µg/mL.
As for `COC(=O)c1c(NC(=O)c2cc3ccccc3cc2OC)sc2c1CC(C)(C)NC2(C)C`, the figure is 31.8 µg/mL (≈ 70.2 µM).
For the compound `O=C(Nc1nnc(C2=COCCO2)o1)c1ccc(F)cc1`, the concentration for an effect of 90% (IC90) is 2.21 µg/mL (≈ 7.59 µM).
Consider `O=C(Nc1nnc(-c2cc(Cl)ccc2Cl)o1)c1ccc(S(=O)(=O)N2CCCCC2)cc1`, for which the 90% effect concentration (IC90) was 11.7 µg/mL (≈ 24.3 µM).
As for `COc1ccc(-c2nnc(NC(=O)c3ccc4c(c3)OCCO4)o2)c(OC)c1`, the figure is 24.7 µg/mL (≈ 64.4 µM).
Consider `O=c1cnnc(N/N=C/c2ccccc2O)[nH]1`, for which the concentration for an effect of 90% (IC90) was 0.46 µg/mL (≈ 1.99 µM).
Take `COc1cc(OC)cc(-c2nnc(NC(=O)c3ccc([N+](=O)[O-])o3)o2)c1`: the IC90 is 9.08 µg/mL (≈ 25.2 µM).
In the case of `O=C1C(Cl)=C(Nc2ccccc2O)C(=O)N1Cc1ccccc1`, the IC90 was 5.45 µg/mL (≈ 16.6 µM).
In the case of `CCOc1ccc(-c2nnc3c4cc5c(cc4n(Cc4cccc(OC)c4)cc2-3)OCCO5)cc1`, the IC90 was 3.52 µg/mL (≈ 7.53 µM).
Consider `COc1ccc(-c2nnc(NC(=O)c3ccccc3C)o2)cc1`, for which the IC90 is 9.97 µg/mL (≈ 32.2 µM).
As for `O=C(Nc1nnc(-c2ccc(F)cc2)o1)c1ccc(Cl)cc1`, the figure is 18.3 µg/mL (≈ 57.5 µM); as for `CCOC(=O)COc1ccc(/C=C2\Oc3cc(OC)ccc3C2=O)cc1`, 3.32 µg/mL (≈ 9.37 µM); as for `Cc1ccc(-c2nnc(NC(=O)CCSc3ccccc3)o2)c(C)c1`, 15.1 µg/mL (≈ 42.7 µM).
As for `COc1cc(/C=C(\C#N)c2nc(-c3ccccc3)cs2)cc([N+](=O)[O-])c1O`, the figure is 54.6 µg/mL (≈ 144 µM).
As for `CC(C)(C)C(=O)Nc1nnc(-c2ccc3c(c2)CCCC3)o1`, the figure is 4.73 µg/mL (≈ 15.8 µM); as for `COC(=O)c1ccc(NC(=O)CSc2nc(-c3cccc(C)c3)ns2)cc1`, under 0.2 µg/mL.
For the compound `NC(=O)c1oc2ccccc2c1NC(=O)C1CC(=O)N(c2ccc(Cl)cc2)C1` (centres undefined), the IC90 was 3.15 µg/mL (≈ 7.92 µM).
As to `COc1cccc(C(=O)Nc2nnc(C3=COCCO3)o2)c1`, the 90% effect concentration (IC90) was 4.85 µg/mL (≈ 16 µM).
Turning to `COc1cccc2sc(Nc3nnc(-c4ccc(F)cc4)o3)nc12`, the IC90 was 2.97 µg/mL (≈ 8.68 µM).
As to `C=CCOC(=O)COc1ccc2cc(-c3ccc(Cl)cc3)c(=O)oc2c1`, the IC90 is 2.53 µg/mL (≈ 6.82 µM).
As for `Cc1cc(C)c2nc(N(CCCn3ccnc3)C(=O)c3cccs3)sc2c1`, the IC90 is 1.45 µg/mL (≈ 3.66 µM).
In the case of `CC(C)N1CCc2c(sc(NC(=O)c3ccc(S(=O)(=O)N(C)c4ccccc4)cc3)c2C(N)=O)C1`, the IC90 is 12.8 µg/mL (≈ 25 µM).
On to `CC(C)(C)c1ccc(C(=O)N2CC(=O)Nc3ccc(Cl)cc3C2c2ccc(F)cc2)cc1` (centres undefined), for which the concentration for an effect of 90% (IC90) is 9.95 µg/mL (≈ 22.1 µM).
As to `CC(C)(C)c1ccc(-n2c(=O)[nH]c3c(C(N)=O)nc(CCc4ccccc4)nc32)cc1`, the concentration for an effect of 90% (IC90) is 2.36 µg/mL (≈ 5.68 µM).
Turning to `O=C(NCCSc1c[nH]c2ccccc12)c1cc2ccccc2oc1=O`, the IC90 is 1.58 µg/mL (≈ 4.34 µM).
In the case of `Cc1ccc(C)c(-c2csc(NC(=O)c3ccc([N+](=O)[O-])s3)n2)c1`, the IC90 was 3.37 µg/mL (≈ 9.38 µM).
For the compound `COC(=O)c1ccc(CSc2nnc(-c3ccncc3)o2)o1`, the IC90 is 5.77 µg/mL (≈ 18.2 µM).

In general, IC90 refers to the point of the concentration-response curve where the effect stands at 90%.

For the origin of these results see PubChem BioAssay AID2842 (Southern Research Institute, 2010).
